Reference: PMC3483286, “Functional characterization and evolution of PTH/PTHrP receptors: insights from the chicken” (BMC Evolutionary Biology, 2012)
Entries after “also recorded” stand apart in the source; their conditions may differ. Where a SMILES comes first, the peptide text is derived from it.

Experiments:
[1] = target: T1, chicken PTH1R (Gallus gallus, UniProt C7S302); assay: cAMP accumulation in HEK293 cells stably transfected with chicken PTH1R (radioimmunoassay); type: cell-based; settings: for Emax (maximal cAMP production, PTH1R): mean ± SEM, 3 experiments in triplicate, above basal levels, * (PTHrP) p < 0.05 compared to other peptides; for accumulation of cAMP with PTH1R, human peptide, in words: human peptides at 10 nM and 100 nM, single experiment in triplicate
T1 sequence (C7S302 1-538): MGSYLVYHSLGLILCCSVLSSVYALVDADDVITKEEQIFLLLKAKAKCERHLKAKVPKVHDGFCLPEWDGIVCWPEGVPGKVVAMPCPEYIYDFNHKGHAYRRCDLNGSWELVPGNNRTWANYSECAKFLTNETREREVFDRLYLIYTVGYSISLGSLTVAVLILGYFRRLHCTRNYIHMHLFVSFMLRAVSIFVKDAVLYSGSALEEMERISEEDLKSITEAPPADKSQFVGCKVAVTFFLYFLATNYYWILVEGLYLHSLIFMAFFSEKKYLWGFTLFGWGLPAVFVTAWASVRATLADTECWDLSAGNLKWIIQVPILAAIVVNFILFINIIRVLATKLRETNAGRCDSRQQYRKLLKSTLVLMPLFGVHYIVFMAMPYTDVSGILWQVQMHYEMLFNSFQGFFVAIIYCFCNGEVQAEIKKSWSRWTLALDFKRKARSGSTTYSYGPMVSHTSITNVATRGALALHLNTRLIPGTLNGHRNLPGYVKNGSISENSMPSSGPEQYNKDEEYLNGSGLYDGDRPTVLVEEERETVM
Experimental: (§1) HEK293 cells were maintained in complete Dulbecco’s modified Eagle’s medium (DMEM, Sigma, Spain) with 4.5 g/L glucose, 110 mg/L sodium pyruvate and L-glutamine supplemented with 10% sterile foetal bovine serum and 0.1% penicillin: streptomycin antibiotic mixture (10.000 U:10 mg/ml, Sigma) in a humid 5% CO2 incubator (Sanyo) at 37°C. On the day prior to transfection, 2–3 x10^5 cells were seeded on 6 well-plates (Starsted, Portugal). Linearized constructs (1 μg) and Fugene 6 (Roche, Germany) cell transfection reagent were used to transfect cells according to the manufactures protocol. The transfection complex was incubated for 40 min at room temperature before adding to the cells which were left to grown for 72 hours with daily changes of complete medium. Selection of the stably transfected clones was performed with complete medium supplemented with 800 μg/ml of Geneticin (G418 sulphate, GibcoBRL) and 250 μg/ml sterile filtered 1:100 amphotericin B solution (Sigma, Spain). Cell recovery was monitored daily by constant changes of antibiotic selective medium and the success of gene integration and expression was confirmed by RT-PCR with receptor specific primers.
(§2) The capacity of chicken (1–34) PTH-family peptides to activate the stably transfected PTH1R and PTH3R cell lines was analysed by measuring intracellular cAMP production. Cell line bearing chicken receptors PTH1R and PTH3R were assayed in triplicate in the same assay in 96 well plates (Starstedt). Three independent experiments were performed. Cells were incubated at 37°C in a CO2 incubator and two days prior to the experiments, 2–3 x 10^5 cells were plated and peptide assays were carried out by adding to the recombinant cells decreasing concentrations of test peptide: 100 nM to 0.1 nM of chicken PTH(1–34), PTHrP(1–34) and PTH-L(1–34) or 100 nM of human PTH(1–34) and human TIP39 (Sigma, Spain). Prior to peptide addition, cells were incubated for 40 min with 1 mM 3-isobutyl-1-methylxantine (IBMX, Sigma), which was replaced with fresh medium containing the test peptide in the presence of 1 mM IBMX for a further 40 min. Forskolin (10 μM, Sigma) was used as positive control. Negative control assays were carried out using non-transfected cells in the presence or absence of 100 nM of each peptide. At the end of the assays, cells were washed, ressuspended in 100 μl of 1 x PBS/0.5 M EDTA and immediately frozen at −80°C to promote cell lysis for later quantification of intracellular cAMP production.
(§3) For quantification of intracellular cAMP, cells were lysed using 3 consecutive thaw (42°C)/freeze (−80°C) cycles and the supernatant and cell debris were sonicated for 20 sec on ice. Cells were boiled at 100°C for 10 min to denature proteins and the supernatant was collected after centrifugation for 10 min at 4°C and 19000 g. cAMP was quantified in duplicate by radioimmunoassay using the TRK432 kit (GE Healthcare, UK) following the manufacturer's instructions.
(§4) The results are presented as the mean ± SEM of three independent experiments carried out in triplicate for cAMP experiments and two independent experiments carried out in quadruplicate for Ca^2+ experiments. Data was plotted as the output of cAMP or Ca^2+ at different peptide concentrations for each PTHR using SigmaPlot 9 (Systat, Inc., San Jose, CA). EC50 and confidence limits were calculated using a sigmoidal curve fitting feature within the Single Ligand Binding routine of the Pharmacology module of Sigmaplot. […] To improve curve fitting the maximum empirical stimulation achieved for each receptor was assumed to be at 100 nM for all assays and the curve fitted accordingly.

[2] = target: T2, chicken PTH3R (Gallus gallus, UniProt G8YY06); assay: cAMP accumulation in HEK293 cells stably transfected with chicken PTH3R (radioimmunoassay); type: cell-based; settings: for stimulation of PTH3R cAMP accumulation, comparison in words: chicken 1–34 peptides, 0.1 nM to 100 nM; for Emax (maximal cAMP production, PTH3R): mean ± SEM, 3 experiments in triplicate, above basal levels, * (PTH-L) p < 0.05 compared to other peptides
T2 sequence (G8YY06 1-530): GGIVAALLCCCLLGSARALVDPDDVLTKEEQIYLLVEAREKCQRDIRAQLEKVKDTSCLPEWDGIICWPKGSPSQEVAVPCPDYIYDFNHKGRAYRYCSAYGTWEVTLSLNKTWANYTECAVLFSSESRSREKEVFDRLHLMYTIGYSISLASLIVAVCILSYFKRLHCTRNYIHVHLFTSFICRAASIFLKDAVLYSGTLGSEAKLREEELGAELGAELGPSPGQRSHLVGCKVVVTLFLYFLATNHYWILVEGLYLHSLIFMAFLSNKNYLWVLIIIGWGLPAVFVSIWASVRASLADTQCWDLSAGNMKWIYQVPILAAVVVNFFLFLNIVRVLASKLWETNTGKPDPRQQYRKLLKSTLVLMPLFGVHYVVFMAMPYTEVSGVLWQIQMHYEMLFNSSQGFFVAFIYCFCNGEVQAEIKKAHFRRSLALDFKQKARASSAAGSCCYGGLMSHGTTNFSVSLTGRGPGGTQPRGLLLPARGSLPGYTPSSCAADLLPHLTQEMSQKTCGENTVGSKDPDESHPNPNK
Experimental: as §1, §2, §3, §4

[3] = target: T1, chicken PTH1R; assay: intracellular Ca^2+ accumulation in HEK293 cells transfected with chicken PTH1R (Fluo-4 NW); type: cell-based; settings: HEK293, Fluo-4 NW; peptide 1 μM and 100 nM screen, decreasing concentrations
Experimental: as §1, with “The transfection complex was incubated for 40 min at room temperature before adding to the cells which were left to grown for 72 hours with daily changes of complete medium. Selection of the stably transfected clones was performed with complete medium supplemented with 800 μg/ml of Geneticin (G418 sulphate, GibcoBRL) and 250 μg/ml sterile filtered 1:100 amphotericin B solution (Sigma, Spain).” left out
(§5) Intracellular Ca^2+ (iCa^2+) release was measured using the Ca^2+ sensitive fluorescent dye Fluo-4 NW (Molecular Probes, Invitrogen) according to manufacturer’s instructions. […] Incubations were carried out with 100 μl of the different peptides concentrations (from 1 μM to 100 nM) and cell fluorescence was measured every 10 sec over 2 minutes after addition of reagent using a Synergy4 (Biotek, USA) plate reader. Carbachol (100 nM; Sigma, Spain) was used as a positive control for the assay and the background signal was determined by measuring fluorescence in wells containing non-transfected cells. […]

[4] = target: T2, chicken PTH3R; assay: intracellular Ca^2+ accumulation in HEK293 cells transfected with chicken PTH3R (Fluo-4 NW); type: cell-based; settings: HEK293, Fluo-4 NW; 1 μM and 100 nM of each peptide
Experimental: as §1, with “The transfection complex was incubated for 40 min at room temperature before adding to the cells which were left to grown for 72 hours with daily changes of complete medium. Selection of the stably transfected clones was performed with complete medium supplemented with 800 μg/ml of Geneticin (G418 sulphate, GibcoBRL) and 250 μg/ml sterile filtered 1:100 amphotericin B solution (Sigma, Spain).” left out
as §5

[5] = test system: Zebrafish PTH1R; settings: N-terminal peptides; ref [8],[10]; cited from earlier work
Excerpt: Chicken PTHRs are activated by PTH-family peptides in a dose-dependent manner. […] Mammalian PTH1R is activated by both PTH and PTHrP which have similar potency and stimulate both cAMP and iCa^2+ production.

Compound | stimulation of PTH1R cAMP accumulation, comparison in words ([1]; chicken 1–34 peptides, 0.1 nM to 100 nM) | Emax (maximal cAMP production, PTH1R) [1] | stimulation of PTH3R cAMP accumulation, comparison in words [2] | stimulation of PTH3R cAMP accumulation, comparison in words ([2]; listed as PTHrP(1–34)) | Emax (maximal cAMP production, PTH3R) [2] [pmol/well] | intracellular Ca^2+ accumulation with PTH1R, in words [3] | release of intracellular Ca^2+ on PTH3R activation, in words [4] | cAMP accumulation, human peptide on chicken PTH1R ([1]; 10^-7 M, mean ± SEM of a single experiment carried out in triplicate (Additional file 4)) [pmol/well] | accumulation of cAMP with PTH1R, human peptide, in words [1] | activation of zebrafish PTH1R, in words [5] | cAMP production with PTH3R, human peptide, in words ([2]; human peptides at 10 nM and 100 nM, single experiment in triplicate)
CC[C@H](C)[C@H](NC(=O)[C@H](CC(C)C)NC(=O)[C@H](CC(N)=O)NC(=O)[C@H](CCC(N)=O)NC(=O)[C@H](CC(C)C)NC(=O)[C@H](Cc1ccccc1)NC(=O)[C@@H](NC(=O)[C@H](CCCNC(=N)N)NC(=O)[C@H](CCCNC(=N)N)NC(=O)[C@H](CCCNC(=N)N)NC(=O)[C@H](CC(C)C)NC(=O)[C@H](CC(=O)O)NC(=O)[C@H](CCC(N)=O)NC(=O)[C@@H](NC(=O)[C@H](CO)NC(=O)[C@H](CCCCN)NC(=O)CNC(=O)[C@H](CCCCN)NC(=O)[C@H](CC(=O)O)NC(=O)[C@H](Cc1c[nH]cn1)NC(=O)[C@H](CC(C)C)NC(=O)[C@H](CC(C)C)NC(=O)[C@H](CCC(N)=O)NC(=O)[C@H](Cc1c[nH]cn1)NC(=O)[C@H](CCC(=O)O)NC(=O)[C@H](CO)NC(=O)[C@@H](NC(=O)[C@H](C)N)C(C)C)[C@@H](C)CC)[C@@H](C)CC)C(=O)N[C@@H](CCC(=O)O)C(=O)NCC(=O)N[C@H](C(=O)N[C@@H](CC(N)=O)C(=O)N[C@H](C(=O)N[C@@H](C)C(=O)O)[C@@H](C)O)C(C)C [PTHrP] (H-AVSEHQLLHDKGKSIQDLRRRIFLQNLIEGVNTA-OH; N-terminus and C-terminus assumed) | produced the highest stimulation of PTH1R (p < 0.05) | 17.21 ± 1.84 * pmol/well | Stimulation of PTH3R was highest for PTHrP and PTH | had overlapping potency with PTH(1–34) for the latter receptor | 119.9 ± 11.76 | stimulated intracellular Ca^2+ accumulation on activation of PTH1R; also recorded: efficiently stimulated iCa^2+ accumulation with PTH1R | not PTH3R |  |  |  | 
CSCC[C@H](NC(=O)[C@H](CC(C)C)NC(=O)[C@H](CCC(N)=O)NC(=O)[C@H](CCSC)NC(=O)[C@H](CCC(=O)O)NC(=O)[C@H](CO)NC(=O)[C@@H](NC(=O)[C@@H](N)CO)C(C)C)C(=O)N[C@@H](Cc1c[nH]cn1)C(=O)N[C@@H](CC(N)=O)C(=O)N[C@@H](CC(C)C)C(=O)NCC(=O)N[C@@H](CCC(=O)O)C(=O)N[C@@H](Cc1c[nH]cn1)C(=O)N[C@@H](CCCNC(=N)N)C(=O)N[C@@H](Cc1c[nH]cn1)C(=O)N[C@H](C(=O)N[C@H](C(=O)N[C@@H](CCC(=O)O)C(=O)N[C@@H](CCCNC(=N)N)C(=O)N[C@@H](CCC(N)=O)C(=O)N[C@@H](CC(=O)O)C(=O)N[C@@H](Cc1c[nH]c2ccccc12)C(=O)N[C@@H](CC(C)C)C(=O)N[C@@H](CCC(N)=O)C(=O)N[C@@H](CCSC)C(=O)N[C@@H](CCCCN)C(=O)N[C@@H](CC(C)C)C(=O)N[C@@H](CCC(N)=O)C(=O)N[C@@H](CC(=O)O)C(=O)N[C@H](C(=O)N[C@@H](Cc1c[nH]cn1)C(=O)N[C@@H](CO)C(=O)N[C@@H](C)C(=O)O)C(C)C)C(C)C)[C@@H](C)O [PTH] (H-SVSEMQLMHNLGEHRHTVERQDWLQMKLQDVHSA-OH; N-terminus and C-terminus assumed) |  | 6.03 ± 0.78 pmol/well | Stimulation of PTH3R was highest for PTHrP and PTH |  | 144.7 ± 20.02 | had no effect |  |  |  |  | 
Human PTH: human PTH(1–34) [reference compound] |  |  |  |  |  |  |  | 21.4 ± 10 | stimulated cAMP production with an apparently similar potency to chicken PTHrP | activated similarly | 
Human TIP39: human TIP39 (Sigma, Spain), tuberoinfundibular peptide 39 [reference compound] |  |  |  |  |  |  |  |  | failed to induce accumulation of cAMP with PTH1R |  | only negligible cAMP production was obtained for PTH3R
